Results from patent US5856503A, “Aminoalkyl-substituted benzo-heterocyclic compounds” (Hoffmann-La Roche Inc., priority 1995, dated 1999).
Values after ≈ are worked out from the molar mass of the structure shown. Read-outs that look alike come from different tables or passages of the source. Blank lines part the entries; values can stand above or below the molecule they belong to.

Key:
[1] = Cholesterol lowering in fat-fed hamsters; type: in vivo, Male golden hamsters; details: 200 μmol (about 70-120 mg/kg/day) in diet, 10 days
Method: Cholesterol lowering in fat-fed hamsters
Male golden hamsters kept individually were pre-treated for 7 days with a diet containing grated coconut (40 cal. % fat). The animals were then divided into groups each comprising 5 animals. During the treatment the animals were maintained on the same diet. Each test substance was firstly homogenized in 9 ml of water and subsequently mixed with the milled diet. The controls received only feed converted into a paste with water. The animals were treated for 10 days with a test substance dosage of 200 μmol (about 70-120 mg/kg/day). Blood samples (200 μl) were removed via the jugular vein under light anaesthesia on the last day of the pretreatment and one day after the last administration of test substance. The plasma cholesterol concentration was determined using a colorimetric enzyme method. The plasma lipoproteins were separated by exclusion chromatography (Hennes et al., Science Tools, 36, 1992, 10-12). The total cholesterol was determined in each fraction using a fluorometric enzyme method (Gamble et al., J. Lipid Res., 19, 1978, 1068-1071) in order to calculate the amount of cholesterol in the LDL and HDL fractions. The activity on plasma cholesterol and LDL and HDL cholesterol, expressed in percent of the control animals, for the products of Examples 8a and 12 is reproduced in the following Table: […]

[2] = test system: Candida albicans; test: Antifungal activity in vitro, C. albicans (microdilution); type: cell-based; details: 27° C.
Method: (§1) Antifungal activity in vitro The compounds were tested for antifungal activity against Candida albicans, Cryptococcus neoformans and Aspergillus fumigatus using a microdilution method on microtitre plates (96 wells per plate). Yeast supplemented with 1% glucose and 0.25% di-potassium phosphate was used for the three fungal strains. The fungal cells were inoculated at 3×10^4 CFU (Colony Forming Unit) in […] of medium per well. The medium contained increasing concentrations of test substance. After incubation at 27° C. for 24 or 48 hours the turbidity in each well was measured by a microtitre plate reader. The growth inhibition was calculated in comparison to (without test substance). The IC50 value given in the following Table is the concentration of test substance at which the growth is inhibited by 50%.

[3] = test system: Aspergillus fumigatus; test: Antifungal activity in vitro, A. fumigatus (microdilution); type: cell-based; details: 48 hours, 27° C., read-out: IC50 for A. fumigatus after 48 hours (growth inhibition)
Method: as §1

[4] = target: T1, human liver microsomal 2,3-oxidosqualene-lanosterol cyclase (OSC) (Homo sapiens, UniProt P48449); test: Inhibition of human liver microsomal 2,3-oxidosqualene-lanosterol cyclase (OSC); type: biochemical; details: for inhibition at 0.1 µM: 100 nM test substance, 1 hour at 37° C., against controls; for IC50: pH 7.4, 1 hour at 37° C., read-out: IC50 (OSC, conversion of MOS into lanosterol)
T1 construct: Liver microsomes from a healthy volunteer were prepared in sodium phosphate buffer (pH 7.4); from tissue; host or cells: liver microsomes from a healthy human volunteer
T1 sequence (P48449 1-732): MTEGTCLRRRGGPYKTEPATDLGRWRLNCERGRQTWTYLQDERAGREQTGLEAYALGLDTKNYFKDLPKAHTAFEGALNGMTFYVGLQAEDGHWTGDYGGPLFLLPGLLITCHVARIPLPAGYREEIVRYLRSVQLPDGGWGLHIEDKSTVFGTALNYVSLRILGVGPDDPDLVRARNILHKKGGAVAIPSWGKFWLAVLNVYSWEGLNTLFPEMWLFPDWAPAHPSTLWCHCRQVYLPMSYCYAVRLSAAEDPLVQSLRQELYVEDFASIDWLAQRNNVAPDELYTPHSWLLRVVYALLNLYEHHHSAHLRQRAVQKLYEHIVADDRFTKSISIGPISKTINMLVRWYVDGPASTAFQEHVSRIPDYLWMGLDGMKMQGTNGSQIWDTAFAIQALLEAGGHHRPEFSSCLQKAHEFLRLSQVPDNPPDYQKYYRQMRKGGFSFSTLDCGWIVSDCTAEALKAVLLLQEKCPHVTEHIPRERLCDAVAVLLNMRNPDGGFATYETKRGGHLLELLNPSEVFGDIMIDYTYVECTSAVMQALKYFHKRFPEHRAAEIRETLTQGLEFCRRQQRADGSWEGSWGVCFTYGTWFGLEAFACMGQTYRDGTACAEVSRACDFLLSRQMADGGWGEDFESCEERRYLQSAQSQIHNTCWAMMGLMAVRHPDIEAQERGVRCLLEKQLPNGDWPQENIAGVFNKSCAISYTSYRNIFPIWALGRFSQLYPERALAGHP
Method: Inhibition of human liver microsomal 2,3-oxidosqualene-lanosterol cyclase (OSC)
Liver microsomes from a healthy volunteer were prepared in sodium phosphate buffer (pH 7.4). The OSC activity was measured in the same buffer which also contained 1 mM EDTA and 1 mM dithiothreitol. The microsomes were diluted to 0.8 mg/ml protein in cold phosphate buffer. Dry [^14 C]R,S-monooxidosqualene (MOS; 12.8 μCi/mmol) was diluted to 20 nCi/μl with ethanol and mixed with phosphate buffer-1% BSA (Bovine Serum Albumin). A stock solution of 1 mM test substance in DMSO was diluted to the desired concentration with phosphate buffer-1% BSA. 40 μl of microsomes were mixed with 20 μl of the solution of the test substance and the reaction was subsequently started with 20 μl of the [^14 C]R,S-MOS solution. The final conditions were: 0.4 mg/ml of microsomal proteins and […] of [^14 C]R,S-MOS in phosphate buffer, pH 7.4, containing 0.5% albumin, DMSO <0.1% and ethanol <2%, in a total volume of 80 μl.
After 1 hour at 37° C. the reaction was stopped by the addition of 0.6 ml of 10% KOH-methanol, 0.7 ml of water and 0.1 ml of hexane:ether (1:1, v/v) which contained 25 μg of non-radioactive MOS and 25 μg of lanosterol as the carrier. After shaking 1 ml of hexane:ether (1:1, v/v) was added to each test tube, these were again shaken and then centrifuged. The upper phase was transferred into a glass test tube, the lower phase was again extracted with hexane:ether and combined with the first extract. The entire extract was evaporated to dryness with nitrogen, the residue was suspended in 50 μl of hexane:ether and applied to a silica gel plate. Chromatographic separation was effected in hexane:ether (1:1, v/v) as the eluent. […] After drying radioactive MOS and lanosterol were observed on the silica gel plate. The ratio of MOS to lanosterol was determined from the radioactive bands in order to determine the OSC inhibition.
The test was carried out on the one hand with a constant test substance concentration of 100 nM and the percentage OSC inhibition against controls was calculated. In addition, the test was carried out with different test substance concentrations and subsequently the IC50 value was calculated, i.e. the concentration required to reduce the conversion of MOS into lanosterol to 50% of the control value.

[5] = test system: Cryptococcus neoformans; test: Antifungal activity in vitro, C. neoformans (microdilution); type: cell-based; details: 48 hours, 27° C., read-out: IC50 for C. neoformans after 48 hours (growth inhibition)
Method: as §1

[6] = 24 hrs., read-out: IC50 for C. albicans after 24 hrs. (growth inhibition)
[7] = 48 hrs., read-out: IC50 for C. albicans after 48 hrs. (growth inhibition)

IC50 [2, 6]: < 0.32 µg/mL
IC50 [2, 7]: 1.1 µg/mL (≈ 2.42 µM)
IC50 [3]: 0.37 µg/mL (≈ 0.814 µM)
IC50 [5]: < 0.32 µg/mL
SMILES: C=CCN(C)CCCCCCOc1ccc2c(-c3ccc(Br)cc3)nncc2c1 [Example 29a, allyl-[6-[1-(4-bromo-phenyl)-phthalazin-6-yloxy]-hexyl]-methyl-amine]

inhibition at 0.1 µM [4]: 99%
SMILES: C=CCN(C)CCCCCCOc1ccc2c(-c3ccc(Br)cc3)nccc2c1 [Example 23, allyl-[6-[1-(4-bromo-phenyl)-isoquinolin-6-yloxy]-hexyl]-methyl-amine]
HDL cholesterol (plasma, percent of control animals) [1]: -2%
LDL cholesterol (plasma, percent of control animals) [1]: -23%
Total cholesterol (plasma, percent of control animals) [1]: -15%

IC50 [2, 6]: 1.6 µg/mL (≈ 3.51 µM)
IC50 [2, 7]: 6.5 µg/mL (≈ 14.2 µM)
IC50 [3]: 3.9 µg/mL (≈ 8.54 µM)
IC50 [5]: < 0.32 µg/mL
SMILES: C=CCN(C)CCCCCCOc1ccc2c(c1)N=CNC2c1ccc(Br)cc1 (racemic) [Example 34, (RS)-Allyl-[6-[4-(4-bromo-phenyl)-3,4-dihydro-quinazolin-7-yloxy]-hexyl]-methyl-amine]

inhibition at 0.1 µM [4]: 96%
IC50 [4]: 3.7 nM
SMILES: C=CCN(C)C/C=C/COc1ccc2c(c1)CON=C2c1ccc(Br)cc1 [Example 27, (E)-allyl-[4-[4-(4-bromo-phenyl)-1H-benzo[d][1,2]oxazin-7-yloxy]-but-2-enyl]-methyl-amine]

More lines, now with the values behind:

SMILES: C=CCN(C)CCCCCCOc1ccc2c(-c3ccc(Br)cc3)nsc2c1 [Example 1, allyl-[6-[3-(4-bromo-phenyl)-benzo[d]isothiazol-6-yloxy]-hexyl]-methyl-amine]
HDL cholesterol (plasma, percent of control animals) [1]: -27%
LDL cholesterol (plasma, percent of control animals) [1]: -36%
Total cholesterol (plasma, percent of control animals) [1]: -33%
IC50 [2, 6]: < 0.32 µg/mL
IC50 [2, 7]: 3.6 µg/mL (≈ 7.84 µM)
IC50 [3]: 3.9 µg/mL (≈ 8.49 µM)
inhibition at 0.1 µM [4]: 96%
IC50 [4]: 3.3 nM
IC50 [5]: < 0.32 µg/mL

SMILES: CN(CCCCCCOc1ccc2c(-c3ccc(Br)cc3)nccc2c1)C1CC1 [Example 24, [6-[1-(4-bromo-phenyl)-isoquinolin-6-yloxy]-hexyl]-cyclopropyl-methyl-amine]
IC50 [2, 6]: < 0.32 µg/mL
IC50 [2, 7]: 1.4 µg/mL (≈ 3.09 µM)
IC50 [3]: 1.9 µg/mL (≈ 4.19 µM)
inhibition at 0.1 µM [4]: 98%
IC50 [4]: 1.6 nM
IC50 [5]: < 0.32 µg/mL

SMILES: C=CCN(C)CCCCCCOc1ccc2c(c1)CCNC2c1ccc(Br)cc1 (racemic) [Example 21, (RS)-allyl-[6-[1-(4-bromo-phenyl)-1,2,3,4-tetrahydro-isoquinolin-6-yloxy]-hexyl]-methyl-amine]
IC50 [2, 6]: < 0.32 µg/mL
IC50 [2, 7]: 1.3 µg/mL (≈ 2.84 µM)
IC50 [3]: 4.1 µg/mL (≈ 8.96 µM)
IC50 [5]: < 0.32 µg/mL
